Earlier results as cited in patent US20040208942A1, “Alpha lipoic acid based food supplement for increasing lean muscle mass and strength” (priority 2000, published 2004).

## O=C(O)CCCCC1CCSS1 (stereo not drawn) [α lipoic acid]
Type II diabetes
  body's utilization of blood sugar: significantly increase
Type II diabetics
  increase of the metabolic clearance rate of glucose: 50%
